# Reference: ChEMBL document CHEMBL4265906, “Synthesis and biological evaluation of isoxazolyl-sulfonamides: A non-cytotoxic scaffold active against Trypanosoma cruzi, Leishmania amazonensis and Herpes Simplex Virus” (Bioorg Med Chem Lett, 2018)
# pIC50: −log10 of the molar value. Activity calls are given as the source filed them. The calls are words filed in the database; no cut-off is given here.
# Experiments:
# [1] = Cytotoxicity against African green monkey Vero cells assessed as reduction in cell viability after 48 hrs by sulforhodamine B assay; assay type: cell-based; settings: chlorocebus sabaeus
# [2] = Cytotoxicity against human HCT8 cells assessed as reduction in cell viability after 48 hrs by sulforhodamine B assay; assay type: cell-based; settings: HCT-8 cells
# [3] = Selectivity index, ratio of CC50 for human THP1 cells to G150 for Trypanosoma cruzi Tulahuen trypomastigotes; assay type: toxicity; settings: THP-1 cells, read-out: Selectivity Index
# [4] = Cytotoxicity against human THP1 cells assessed as reduction in cell viability by MTT assay; assay type: cell-based; settings: THP-1 cells
# Human alphaherpesvirus 1 [5] = experiment: Antiviral activity against […] HSV1 KOS infected in African green monkey Vero cells assessed as inhibition of viral replication at 100 uM after 48 hrs by naphthol blue-black staining-based assay; assay type: functional; settings: for inhibition at 100 µM: Human alphaherpesvirus 1, KOS
# [6] = Cytotoxicity against human A549 cells assessed as reduction in cell viability after 48 hrs by sulforhodamine B assay; assay type: cell-based
# Trypanosoma cruzi [7] = experiment: Trypanocidal activity against Trypanosoma cruzi Tulahuen trypomastigotes infected in human THP1 cells assessed as growth inhibition at 50 uM after 48 hrs by chlorophenolred-beta-d-galactopyranoside/Nonidet P-40 reagent-based assay; assay type: functional; settings: for inhibition of growth at 50 µM: THP-1, 48 h, read-out: GI
# Trypanosoma cruzi [8] = experiment: Trypanocidal activity against Trypanosoma cruzi Tulahuen trypomastigotes infected in human THP1 cells assessed as growth inhibition after 48 hrs by chlorophenolred-beta-d-galactopyranoside/Nonidet P-40 reagent-based assay; assay type: functional
# Human alphaherpesvirus 1 [9] = experiment: Antiviral activity against […] HSV1 KOS infected in African green monkey Vero cells assessed as inhibition of viral replication after 48 hrs by naphthol blue-black staining-based assay; assay type: functional, organism-based; settings: for pIC50: Human alphaherpesvirus 1, KOS, Vero, 48 h, read-out: IC50; for IC50: vero
# Leishmania amazonensis [10] = experiment: Leishmanicidal activity against Leishmania amazonensis MHOM/BR/77/LTB0016 amastigotes infected in human THP1 cells assessed as growth inhibition at 50 uM after 48 hrs by chlorophenolred-beta-d-galactopyranoside/Nonidet P-40 reagent-based assay; assay type: functional; settings: for inhibition of growth at 50 µM: MHOM/BR/77/LTB0016, THP-1, 48 h, read-out: GI
# [11] = Selectivity index, ratio of CC50 for African green monkey Vero cells to IC50 for HSV1 KOS; assay type: toxicity; settings: read-out: Ratio CC50/IC50
# Trypanosoma cruzi [12] = experiment: Trypanocidal activity against Trypanosoma cruzi Tulahuen trypomastigotes infected in human THP1 cells at 20 uM after 48 hrs by chlorophenolred-beta-d-galactopyranoside/Nonidet P-40 reagent-based assay; assay type: functional; settings: THP-1, 48 h, read-out: GI
# Leishmania amazonensis [13] = experiment: Leishmanicidal activity against Leishmania amazonensis MHOM/BR/77/LTB0016 amastigotes infected in human THP1 cells assessed as growth inhibition at 2 uM after 48 hrs by chlorophenolred-beta-d-galactopyranoside/Nonidet P-40 reagent-based assay; assay type: functional; settings: MHOM/BR/77/LTB0016, THP-1, 48 h, read-out: GI
Structure (SMILES),inhibition at 100 µM (Human alphaherpesvirus 1 [5]) [%],inhibition of growth at 50 µM (Trypanosoma cruzi [7]) [%],"GI50 (Trypanosoma cruzi [8]; THP-1, 48 h) [µM]",pIC50 (Human alphaherpesvirus 1 [9]),inhibition of growth at 50 µM (Leishmania amazonensis [10]) [%],inhibition (Human alphaherpesvirus 1 [5]),IC50 (Human alphaherpesvirus 1 [9]),other results
COc1ccc(-c2cc(CNS(=O)(=O)c3ccc(F)cc3)on2)cc1OC,22.8,72.8,42.4,< 4.00,6.6,,,CC50 at 48 h [1]: 397 µM; CC50 at 48 h [2]: 374 µM; selectivity ratio [3]: 7.1; CC50 [4]: 300 µM; CC50 at 48 h [6]: 327 µM
O=S(=O)(NCc1cc(-c2ccccc2)no1)c1ccc(Cl)cc1,17.8,16.6,> 50,< 4.00,17.2,,,
O=[N+]([O-])c1ccc(-c2cc(CNS(=O)(=O)c3ccc(Cl)cc3)on2)cc1,,,,,2,inactive,Not Active,growth inhibition (GI) (Trypanosoma cruzi [7]): inactive; GI50 (Trypanosoma cruzi [8]): inactive
Cc1ccc(S(=O)(=O)NCc2cc(-c3ccccc3)no2)cc1,25.3,5.8,> 50,< 4.00,10.9,,,
COc1ccc(-c2cc(CNS(=O)(=O)c3ccc(Cl)cc3)on2)cc1OC,2,27.4,> 50,< 4.00,,,,growth inhibition (GI) (Leishmania amazonensis [10]): inactive
Cc1ccc(S(=O)(=O)NCc2cc(-c3ccc([N+](=O)[O-])cc3)no2)cc1,,9.8,> 50,,9.3,inactive,Not Active,
O=S(=O)(NCc1cc(-c2ccc3c(c2)OCO3)no1)c1ccc(F)cc1,70.1,,,3.76,12.8,,,selectivity ratio [11]: > 2.9; growth inhibition (GI) (Trypanosoma cruzi [7]): inactive; GI50 (Trypanosoma cruzi [8]): inactive
O=C(Cn1ccnc1[N+](=O)[O-])NCc1ccccc1 [BENZNIDAZOLE],,,10.2,,,,,inhibition of growth at 20 µM (Trypanosoma cruzi [12]): 96.6%; selectivity ratio [3]: > 49.1
COc1ccc(-c2cc(CNS(=O)(=O)c3ccc(C)cc3)on2)cc1,65,,,4.02,2,,,CC50 at 48 h [1]: ≥ 331 µM; CC50 at 48 h [2]: > 500 µM; CC50 [4]: > 500 µM; CC50 at 48 h [6]: > 500 µM; selectivity ratio [11]: > 3.4; growth inhibition (GI) (Trypanosoma cruzi [7]): inactive; GI50 (Trypanosoma cruzi [8]): inactive
O=[N+]([O-])c1ccc(-c2cc(CNS(=O)(=O)c3ccc(F)cc3)on2)cc1,,7.8,> 50,,15.7,inactive,Not Active,
O=S(=O)(NCc1cc(-c2ccccc2)no1)c1ccc(F)cc1,40.2,,,< 4.00,13.2,,,growth inhibition (GI) (Trypanosoma cruzi [7]): inactive; GI50 (Trypanosoma cruzi [8]): inactive
O=[N+]([O-])c1ccc(S(=O)(=O)NCc2cc(-c3ccccc3)no2)cc1,10.4,34,> 50,< 4.00,18.4,,,
C[C@@H]1[C@H](O)[C@@H](C)/C=C/C=C/C=C/C=C/C=C/C=C/C=C/[C@H](O[C@@H]2O[C@H](C)[C@@H](O)[C@H](N)[C@@H]2O)C[C@@H]2O[C@](O)(C[C@@H](O)C[C@@H](O)[C@H](O)CC[C@@H](O)C[C@@H](O)CC(=O)O[C@H]1C)C[C@H](O)[C@H]2C(=O)O [AMPHOTERICIN B],,,,,,,,inhibition of growth at 2 µM (Leishmania amazonensis [13]): 92.1%
O=[N+]([O-])c1ccc(S(=O)(=O)NCc2cc(-c3ccc4c(c3)OCO4)no2)cc1,25.3,86.3,11.6,< 4.00,43.4,,,CC50 at 48 h [1]: 387 µM; CC50 at 48 h [2]: > 500 µM; selectivity ratio [3]: 29.1; CC50 [4]: 339 µM; CC50 at 48 h [6]: 284 µM
COc1ccc(-c2cc(CNS(=O)(=O)c3ccc(F)cc3)on2)cc1,100,44.5,> 50,4.06,14,,,selectivity ratio [11]: > 5.7
COc1ccc(-c2cc(CNS(=O)(=O)c3ccc(C)cc3)on2)cc1OC,,25.6,> 50,,4.1,inactive,Not Active,
O=[N+]([O-])c1ccc(-c2cc(CNS(=O)(=O)c3ccc([N+](=O)[O-])cc3)on2)cc1,,76.2,38.6,,25.2,inactive,Not Active,selectivity ratio [3]: > 12.9
COc1ccc(-c2cc(CNS(=O)(=O)c3ccc(Cl)cc3)on2)cc1,32,,,< 4.00,6.4,,,growth inhibition (GI) (Trypanosoma cruzi [7]): inactive; GI50 (Trypanosoma cruzi [8]): inactive
COc1ccc(-c2cc(CNS(=O)(=O)c3ccc([N+](=O)[O-])cc3)on2)cc1,60,85.8,14.3,3.86,48.7,,,selectivity ratio [3]: > 34.8; selectivity ratio [11]: > 3.6
COc1ccc(-c2cc(CNS(=O)(=O)c3ccc([N+](=O)[O-])cc3)on2)cc1OC,,53.9,> 50,,10.2,inactive,Not Active,
O=S(=O)(NCc1cc(-c2ccc3c(c2)OCO3)no1)c1ccc(Cl)cc1,,14.2,> 50,,30.7,inactive,Not Active,
Nc1nc2c(ncn2COCCO)c(=O)[nH]1 [ACYCLOVIR],,,,5.89,,,,selectivity ratio [11]: > 1500
Cc1ccc(S(=O)(=O)NCc2cc(-c3ccc4c(c3)OCO4)no2)cc1,19.1,,,< 4.00,11.4,,,CC50 at 48 h [1]: > 500 µM; CC50 at 48 h [2]: 437 µM; CC50 [4]: > 500 µM; CC50 at 48 h [6]: 358 µM; growth inhibition (GI) (Trypanosoma cruzi [7]): inactive; GI50 (Trypanosoma cruzi [8]): inactive
